Reference: the supplement of paper PMC10307832

Columns and labels:
Test in all cases: relative viability (nuclei count vs DMSO), 5 days (fraction); higher = more cells survive
Doramapimod + Lapatinib = compound: Cc1ccc(-n2nc(C(C)(C)C)cc2NC(=O)Nc2ccc(OCCN3CCOCC3)c3ccccc23)cc1 [Doramapimod] + CS(=O)(=O)CCNCc1ccc(-c2ccc3ncnc(Nc4ccc(OCc5cccc(F)c5)c(Cl)c4)c3c2)o1 [Lapatinib] (partner 2 µM)
How it was run: (§1)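 Each reported value is a median over duplicate plates. It expresses relative viability: treated-well nuclei count divided by vehicle-well nuclei count. Lung cancer cell lines in 1536-well plates were dosed by pin tool a day after seeding, alone with one drug or with a fixed anchor-drug dose plus five library-drug doses (not always all listed) in √10 steps, and nuclei were counted after 5 days.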

RAF265 + Navitoclax = compound: Cn1c(Nc2ccc(C(F)(F)F)cc2)nc2cc(Oc3ccnc(-c4ncc(C(F)(F)F)[nH]4)c3)ccc21 [RAF265] + CC1(C)CCC(c2ccc(Cl)cc2)=C(CN2CCN(c3ccc(C(=O)NS(=O)(=O)c4ccc(N[C@H](CCN5CCOCC5)CSc5ccccc5)c(S(=O)(=O)C(F)(F)F)c4)cc3)CC2)C1 [Navitoclax] (partner 0.5 µM)
How it was run: as §1

IPA-3 + Pictilisib = compound: C1=CC=C2C(=C1)C=CC(=C2SSC3=C(C=CC4=CC=CC=C43)O)O [IPA-3] + CS(=O)(=O)N1CCN(Cc2cc3nc(-c4cccc5[nH]ncc45)nc(N4CCOCC4)c3s2)CC1 [Pictilisib] (partner 1 µM)
How it was run: as §1

RAF265 + Linsitinib = compound: Cn1c(Nc2ccc(C(F)(F)F)cc2)nc2cc(Oc3ccnc(-c4ncc(C(F)(F)F)[nH]4)c3)ccc21 [RAF265] + C[C@]1(O)C[C@@H](c2nc(-c3ccc4ccc(-c5ccccc5)nc4c3)c3c(N)nccn32)C1 [Linsitinib] (partner 1 µM)
How it was run: as §1

Cell Line	relative viability (Doramapimod + Lapatinib; first compound 0.02 µM)	relative viability (Doramapimod + Lapatinib; first compound 0.06325 µM)	relative viability (Doramapimod + Lapatinib; first compound 0.2 µM)	relative viability (Doramapimod + Lapatinib; first compound 0.6325 µM)	relative viability (Doramapimod + Lapatinib; first compound 2 µM)	relative viability (RAF265 + Navitoclax; first compound 0.01 µM)	relative viability (RAF265 + Navitoclax; first compound 0.03162 µM)	relative viability (RAF265 + Navitoclax; first compound 0.1 µM)	relative viability (RAF265 + Navitoclax; first compound 0.3162 µM)	relative viability (RAF265 + Navitoclax; first compound 1 µM)	relative viability (IPA-3 + Pictilisib; first compound 0.2 µM)	relative viability (IPA-3 + Pictilisib; first compound 0.6325 µM)	relative viability (IPA-3 + Pictilisib; first compound 2 µM)	relative viability (IPA-3 + Pictilisib; first compound 6.325 µM)	relative viability (IPA-3 + Pictilisib; first compound 20 µM)	relative viability (RAF265 + Linsitinib; first compound 0.01 µM)	relative viability (RAF265 + Linsitinib; first compound 0.03162 µM)	relative viability (RAF265 + Linsitinib; first compound 0.1 µM)	relative viability (RAF265 + Linsitinib; first compound 0.3162 µM)	relative viability (RAF265 + Linsitinib; first compound 1 µM)
HCC-15	0.864	0.962	0.84	0.521	0.752	0.734	0.709	0.7	0.505	0.464	0.853	0.783	0.724	0.776	0.841	0.886	0.835	0.754	0.639	0.394
NCI-H23	0.962	0.998	1.11	0.761	1.12	0.886	0.825	0.775	0.553	0.317	0.672	0.531	0.473	0.509	0.611	0.668	0.541	0.437	0.321	0.202
NCI-H1792	0.898	0.986	0.909	0.859	0.858	0.637	0.597	0.641	0.541	0.459	0.258	0.285	0.25	0.272	0.325	0.576	0.506	0.583	0.326	0.126
NCI-H596	1.03	1.15	1.14	1.33	1.07	1.02	0.862	1.03	1.06	0.576	0.41	0.412	0.409	0.401	0.45	1.05	0.97	1.1	1.09	0.657
NCI-H460	0.889	0.962	0.858	0.946	0.934	1.17	1.08	1.21	–	0.852	0.479	0.321	0.36	0.408	0.557	0.812	0.692	0.647	–	0.378
HCC-366	1.08	1.08	1.14	1.03	1.03	1.09	1.15	1.13	1.09	0.776	0.161	0.152	0.0986	0.184	0.136	0.674	0.69	0.881	0.748	0.459
NCI-H2085	0.79	0.764	0.749	0.836	0.707	1.17	1.12	1.16	1.27	1.09	0.44	0.44	0.447	0.426	0.535	0.894	0.945	0.938	0.98	0.917
PC-14	0.292	0.322	0.346	0.425	0.319	0.955	1.03	1.03	0.985	0.854	1.1	0.562	0.804	0.678	1.19	1.02	0.968	1.02	–	0.788
